We go through 1 molecule from US6723897B2, “Methods for controlling gibberellin levels” (Monsanto Technology, LLC, priority 1998, dated 2004).

Common to all, as to assay type: in vivo, Glycine max
The test system of assay [1] is constitutively GA-deficient transgenic dwarf soybean line 719. Nature of the assay: Experiment I greenhouse test, seed imbibition, GA-deficient soybean. More on the design: Observation on Transgenic Line 719: key: −1: treated plants are shorter as compared to untreated plants; 0: treated plants had the same stature as untreated plants; 1: treated plants are slightly elongated as compared to untreated plants; 2: treated plants are moderately elongated as compared to untreated plants; 3: treated plants are highly elongated as compared to untreated plants; 4: treated plants are extremely elongated as compared to untreated plants. The following applies: 0.25 mg/ml. From the text: Seeds are covered with 0.5″ of vermiculite.
In assay [2] the test system is constitutively GA-deficient transgenic dwarf soybeans (line 719). Nature of the assay: Summary of first two greenhouse experiments, rescue of GA-deficient soybeans. More on the design: key: +: transgenic soybeans are rescued; 0: transgenic soybeans are not rescued. A digest of the protocol: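 Seeds of wild-type A3237 or GA-deficient dwarf line 719 imbibed 6 h in ethanol-water compound solutions (0.25, 0.025, 0.0025 mg/ml; GA9 at 0.125, 0.0125, 0.00125 mg/ml; Experiment I 0.25 mg/ml only), 20 seeds per treatment, then grown in greenhouse. Dwarf/intermediate/tall counts, plant height and rescue uniformity recorded after three weeks.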

In assay [3] the test system is GA-deficient transgenic soybean line 719 (R5). The assay can be described thus: Hilum treatment of soybean seeds, seedling growth and development, GA-deficient soybean. Further details: key to Emergence timing / Hypocotyl length (6 DAP) / 1st internode length (12 DAP) / 3rd internode length (20 DAP) / 2nd internode length (12 DAP): pos: emergence faster/stem segment longer than controls; 0: emergence timing/stem segment length similar to controls; neg: emergence slower/stem segment shorter than controls. The following applies: L719; hilum treatment, single rate per compound 8.3-16.5 μg/seed. In short, it runs like this:
(§1)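 GA compounds dissolved in ethanol were applied as 1 μl droplets, each dried before the next, to the hilum of GA-deficient transgenic line 719 (R5) or wild-type soybean seeds; ethanol alone served as control. Emergence was scored over time as cotyledons at or above soil level, with growth measured after prolonged development.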

The subject of the next assay is wild-type A3237 soybean. The assay can be described thus: Hilum treatment of soybean seeds, seedling growth and development, wild-type soybean. More on the design: key to Emergence timing / Hypocotyl length (6 DAP) / 1st internode length (12 DAP) / 3rd internode length (20 DAP): pos: emergence faster/stem segment longer than controls; 0: emergence timing/stem segment length similar to controls; neg: emergence slower/stem segment shorter than controls. The following applies: single rate per compound 8.3-16.5 μg/seed. In short, it runs like this: as §1

Molecules are shown by their SMILES.

For the molecule `C=C1C[C@@]23CC[C@H]4[C@@](C)(CCC[C@@]4(C)C(=O)O)[C@@H]2CC[C@@H]1C3` [kaurenoic acid], the “effect in both the constitutive transgenic dwarf and wild-type soybean lines” value in assay [1] (imbibition, lines 719 and A3237) was “rescue (elongated hypocotyls) with very little elongation”. Also, in assay [1] (seeds imbibed 5 hours), the “Observation on Transgenic Line 719” value is 1 and the “Observation on Transgenic Line 719, remark in words” value is “some rescue”. Further, in assay [2] (0.0025 mg/ml solution (ethanol-water)), the “Rescue of GA-deficient soybeans” value is given as 0. In assay [2] (0.025 mg/ml solution (ethanol-water)), the “Rescue of GA-deficient soybeans” value came to 0. Besides, in assay [3], the “1st internode length (12 DAP)” value is recorded as 0, the Emergence timing result was “pos” and the “Hypocotyl length (6 DAP)” value is 0. Besides, in the assay on wild-type A3237 soybean, the “1st internode length (12 DAP)” value is listed as 0, the Emergence timing was found to be 0 and the “Hypocotyl length (6 DAP)” value amounted to 0.
